Measured values reported in US6716392B1, “Preservation of liquid biological samples” (The United States of America as represented by the United …, priority 1995, dated 2004).
Read-outs that look alike come from different tables or passages of the source. Blank lines part the entries; values can stand above or below the compound they belong to.

Assays:
[1] = type: physicochemical; settings: for storage time over which concentrations in saliva were comparable / preserved: room temperature in the presence of P1 versus −20° C.; for SALIVA STABILITY OF MELATONIN: human
Description: The effectiveness of the preservative of the present invention in maintaining the stability of hormones in liquid biological samples was evaluated by measuring the maintenance of base-line physiological levels of melatonin and cortisol in saliva. Aliquots (non-spiked) of the pooled saliva samples containing base-line physiological levels of melatonin and cortisol were stored −20° C. or at room temperature and containing sodium benzoate and citric acid in an amount of 0.25% and 0.05% of the sample (weight/volume), respectively (“P1”). Duplicate samples were analyzed by radioimmunoassay on days 1, 14, 28, 60, 120, 180, 240 and 360 (see Tables 5 and 6 below).

[2] = Stability of spiked APAP and AP in saliva (HPLC); type: physicochemical
From the text: Non-invasive estimates of physiological and pharmacokinetic alterations may be obtained by measuring the concentrations of certain compounds and their metabolites in liquid biological samples (e.g., saliva). For example, gastrointestinal activity and the absorption, bioavailability and elimination of acetaininophen (“APAP”) may be assessed by measuring APAP concentrations in liquid biological samples following oral administration of APAP. In addition, hepatic metabolism may be measured indirectly from the clearance of orally administered antipyrine (“AP”) from liquid biological samples. The accuracy of such non-invasive estimates depends, in part, upon the stability of the reference compound or metabolite in the liquid biological sample. Therefore, the effectiveness of a particular preservative may be evaluated by determining the degradation time course for a known quantity of a specific reference compound.
The effectiveness of the preservative of the present invention was evaluated by measuring the stability of APAP and AP in saliva samples stored at −20° C. as compared to saliva samples stored at room temperature and containing sodium benzoate and citric acid in an amount of 0.25% and 0.05% of the sample (weight/volume), respectively (“P1”). Saliva samples were collected from forty subjects, pooled, aliquoted and spiked with APAP (5 or 25 μg/ml) or AP (5 or 50 μg/ml). Duplicate samples were analyzed by high performance liquid chromatography on days 1, 14, 28, 60, 120, 180, 240 and 360 (see Tables 1-4 below).

storage time over which concentrations in saliva were comparable / preserved [1]: 180 days
Structure (SMILES): C[C@]12CCC(=O)C=C1CC[C@@H]1[C@@H]2[C@@H](O)C[C@@]2(C)[C@H]1CC[C@]2(O)C(=O)CO [Cortisol, cortisol]

Saliva Stability (APAP concentration) ([2]; 5 μg/ml APAP, No Preservative, −20° C., Day 01): 5.83 ± 0.08 µg/mL
Saliva Stability (APAP concentration) ([2]; 5 μg/ml APAP, No Preservative, −20° C., Day 14): 6.59 ± 0.61 µg/mL
Saliva Stability (APAP concentration) ([2]; 5 μg/ml APAP, No Preservative, −20° C., Day 28): 5.81 ± 0.08 µg/mL
Saliva Stability (APAP concentration) ([2]; 5 μg/ml APAP, No Preservative, −20° C., Day 60): 5.82 ± 0.20 µg/mL
Saliva Stability (APAP concentration) ([2]; 5 μg/ml APAP, No Preservative, −20° C., Day 120): 5.54 ± 0.33 µg/mL
Saliva Stability (APAP concentration) ([2]; 5 μg/ml APAP, No Preservative, −20° C., Day 180): 3.77 ± 0.03 µg/mL
Saliva Stability (APAP concentration) ([2]; 5 μg/ml APAP, No Preservative, −20° C., Day 240): 4.17 ± 0.16 µg/mL
Saliva Stability (APAP concentration) ([2]; 5 μg/ml APAP, No Preservative, −20° C., Day 360): 5.14 ± 0.09 µg/mL
Saliva Stability (APAP concentration) ([2]; 5 μg/ml APAP, P1, RT, Day 01): 5.49 ± 0.09 µg/mL
Saliva Stability (APAP concentration) ([2]; 5 μg/ml APAP, P1, RT, Day 14): 5.38 ± 0.14 µg/mL
Saliva Stability (APAP concentration) ([2]; 5 μg/ml APAP, P1, RT, Day 28): 4.83 ± 1.79 µg/mL
Saliva Stability (APAP concentration) ([2]; 5 μg/ml APAP, P1, RT, Day 60): 6.89 ± 0.94 µg/mL
Saliva Stability (APAP concentration) ([2]; 5 μg/ml APAP, P1, RT, Day 120): 5.40 ± 0.20 µg/mL
Saliva Stability (APAP concentration) ([2]; 5 μg/ml APAP, P1, RT, Day 180): 4.37 ± 0.08 µg/mL
Saliva Stability (APAP concentration) ([2]; 5 μg/ml APAP, P1, RT, Day 240): 4.29 ± 0.25 µg/mL
Saliva Stability (APAP concentration) ([2]; 5 μg/ml APAP, P1, RT, Day 360): 5.31 ± 0.43 µg/mL
Saliva Stability (APAP concentration) ([2]; 25 μg/ml APAP, No Preservative, −20° C., Day 01): 24.88 ± 0.22 µg/mL
Saliva Stability (APAP concentration) ([2]; 25 μg/ml APAP, No Preservative, −20° C., Day 14): 25.60 ± 0.41 µg/mL
Saliva Stability (APAP concentration) ([2]; 25 μg/ml APAP, No Preservative, −20° C., Day 28): 25.25 ± 0.48 µg/mL
Saliva Stability (APAP concentration) ([2]; 25 μg/ml APAP, No Preservative, −20° C., Day 60): 25.02 ± 0.4 µg/mL
Saliva Stability (APAP concentration) ([2]; 25 μg/ml APAP, No Preservative, −20° C., Day 120): 25.45 ± 0.49 µg/mL
Saliva Stability (APAP concentration) ([2]; 25 μg/ml APAP, No Preservative, −20° C., Day 180): 16.71 ± 0.50 µg/mL
Saliva Stability (APAP concentration) ([2]; 25 μg/ml APAP, No Preservative, −20° C., Day 240): 18.20 ± 0.14 µg/mL
Saliva Stability (APAP concentration) ([2]; 25 μg/ml APAP, No Preservative, −20° C., Day 360): 24.37 ± 0.36 µg/mL
Saliva Stability (APAP concentration) ([2]; 25 μg/ml APAP, P1, RT, Day 01): 24.94 ± 0.56 µg/mL
Saliva Stability (APAP concentration) ([2]; 25 μg/ml APAP, P1, RT, Day 14): 24.63 ± 0.12 µg/mL
Saliva Stability (APAP concentration) ([2]; 25 μg/ml APAP, P1, RT, Day 28): 27.3 ± 1.54 µg/mL
Saliva Stability (APAP concentration) ([2]; 25 μg/ml APAP, P1, RT, Day 60): 29.88 ± 3.58 µg/mL
Saliva Stability (APAP concentration) ([2]; 25 μg/ml APAP, P1, RT, Day 120): 24.20 ± 0.47 µg/mL
Saliva Stability (APAP concentration) ([2]; 25 μg/ml APAP, P1, RT, Day 180): 17.55 ± 0.46 µg/mL
Saliva Stability (APAP concentration) ([2]; 25 μg/ml APAP, P1, RT, Day 240): 17.21 ± 0.36 µg/mL
Saliva Stability (APAP concentration) ([2]; 25 μg/ml APAP, P1, RT, Day 360): 25.70 ± 0.55 µg/mL
Structure (SMILES): CC(=O)Nc1ccc(O)cc1 [APAP, acetaminophen]

SALIVA STABILITY OF MELATONIN ([1]; 28 day): 31.71 ± 4.4 pg/mL
SALIVA STABILITY OF MELATONIN ([1]; 28 days): 29.43 ± 5.9 pg/mL
storage time over which concentrations in saliva were comparable / preserved [1]: 180 days
Structure (SMILES): COc1ccc2[nH]cc(CCNC(C)=O)c2c1 [Melatonin, melatonin]
